Reference: patent publication US7132542B2, “Compounds for the treatment of male erectile dysfunction” (Bristol-Myers Squibb Company, priority 2003, dated 2006)

Experiments:
[1] = system: rabbit corpus cavernosum tissue; experiment: Relaxation of rabbit corpus cavernosum strips precontracted with phenylephrine; conditions: Oryctolagus cuniculus; inhibition of phenylephrine (3 μM)-induced force as compared to vehicle control; read-out: % Inhibition of force (RCC strips)
Protocol: The ability of the compounds of the invention to relax rabbit corpus cavernosum tissue as a model for the treatment of erectile dysfunction is described as follows. New Zealand white rabbits (3.4–3.7 kg) were euthanized by sodium pentobarbital (100 mg/kg) overdose. The penis from each animal was rapidly removed and immersed in a cold oxygenated modified Krebs Henseleit bicarbonate buffer. The penis' outer tunica was removed and the corpus cavernosum smooth muscle obtained and cut into strips approximately 3–5 mm long. The strips were suspended in tissue baths containing physiological salt solution (see above), and allowed to equilibrate for at least one hour under resting tension of 1.0 gram. Isometric force was measured as described above. Tissue strips were stimulated with the α-agonist phenylephrine (3 μM) and allowed to reach a steady level of force prior to the addition of test compounds. The results are expressed as the percentage inhibition of phenylephrine-induced force as compared to vehicle control.

[2] = system: cloned mammalian (mSlo or hSlo) BK channel; experiment: Assay for BK channel openers: two-electrode voltage clamp of BK-mediated outward current in Xenopus oocytes; format: cell-based; conditions: percent increase over BK current in controls, voltage step to +140 mV, IBTX-sensitive current
Protocol: The ability of the compounds of the invention to open BK channels and increase whole-cell outward (K^+) BK-mediated currents was assessed under voltage-clamp conditions by determining their ability to increase cloned mammalian (mSlo or hSlo) BK-mediated outward current heterologously expressed in Xenopus oocytes [Butler, A., et al., Science 1993, 261, 221–224; Dworetzky, S. I., et al., Mol. Brain Res. 1994, 27, 189–193; Gribkoff, V. K., et al., Mol. Pharmacol. 1996, 50, 206–217]. The two BK constructs employed represent nearly structurally identical homologous proteins, and have proven to be pharmacologically indistinguishable in our tests. To isolate BK current from native (background, non-BK) current, the specific and potent BK channel-blocking toxin iberiotoxin (IBTX) [Galvez, A., et al., J. Biol. Chem. 1990, 265, 11083–11090] was employed at a supramaximal concentration, e.g., 50–100 nanomolar (“nM”). The relative contribution of BK channel-mediated current to total outward current was determined by subtraction of the current remaining in the presence of IBTX (non-BK current) from the current profiles obtained in all other experimental conditions (control, drug, and wash) [Gribkoff, V. K. et al., Mol. Pharmacol. 1996, 50, 206–217]. […] All compounds were tested in 5–10 oocytes and are reported at the indicated concentration of 20 micromolar (“μM”) (or as otherwise indicated); the effect of the selected compounds of the invention on BK current was expressed as the percent of control IBTX-sensitive current at a single transmembrane voltage (+140 mV) and is listed in Table 1. Recordings were accomplished using standard two-electrode voltage clamp techniques [Stuhmer, W., et al., Methods in Enzymology, 1992, 207, 319–339]; voltage-clamp protocols consisted of 500–750 milliseconds (“ms”) duration step depolarizations, from a holding potential of −60 mV, to a final voltage up to +140 mV in 20 mV steps. The experimental media (modified Barth's solution) consisted of millimolar (“mM”): NaCl (88), NaHCO3 (2.4), KCl (1.0), HEPES (10), MgSO4 (0.82), Ca(NO3)2 (0.33), CaCl2 (0.41); pH 7.5.

[3] = system: rat small intestine tissue; experiment: Relaxation of rat small intestine (ileum) segments; design: concentration or dose not given beside the values; conditions: integral of nifedipine-sensitive force, 30 min post-compound addition
Text: The ability of the compounds of the invention to relax rat small intestine tissue as a model for the treatment of irritable bowel syndrome is described as follows. Male rats (Harlan, Sprague Dawley, 250–350 g) were sacrificed by decapitation. A portion of small intestine (ileum) was removed and the attached connective tissues and intestinal contents removed. The ileum was cut into segments of ≦1 cm in length. The segments were mounted longitudinally between fixed hooks in organ baths containing warm (37° C.) physiological salt solution (composition in mM: NaCl 118.4, KCl 4.7, KH2PO4 1.2, MgSO4 1.2, CaCl2 1.8, Glucose 10.1, NaHCO3 25; gassed with 95% O2/5% CO2, pH 7.4). A stable tension of ˜1.5 g was maintained in the tissue segments during the equilibration period of 45 minutes. Changes in muscle tension were measured with isometric force transducers (Grass, FT-03C) and recorded using AcqKnowledge data acquisition system (AcqKnowledge for MP100WS, Biopac Systems Inc., Goleta, Calif.). Compound or vehicle was added in the baths for 30 minutes. “Zero” active force was established at the end of the experiment using nifedipine (20 μM). The effects of compounds or vehicle on force was determined by measuring the integral of nifedipine-sensitive force (including resting tone and spontaneous contractions) pre- and 30 min post-compound (or vehicle) addition. Results are expressed as the percentage inhibition of force. DMSO vehicle inhibited force (integral) by −0.6±3.0% (n=25).

| SMILES | inhibition [1] [%] | % MaxiK opening ([2]; at 20 μM) [%] | % MaxiK opening ([2]; at 1 μM) | % Inhibition of force (RSI strips) [3] [%] | % MaxiK opening ([2]; at 10 μM) |
| --- | --- | --- | --- | --- | --- |
| O=C(CN1CCC(N2CCCCC2)CC1)Nc1ccc(Sc2c(-c3cc(Cl)ccc3O)c3cc(C(F)(F)F)ccc3[nH]c2=O)cc1 [Example 8, N-[4-[[4-(5-chloro-2-hydroxyphenyl)-1,2-dihydro-2-oxo-6-(trifluoromethyl)-3-quinolinyl]thio]phenyl]-[1,4′-bipiperidine]-1′-acetamide] | 45 | 283 | – | – | – |
| O=C(CCCN1CCN(c2ccccn2)CC1)Nc1ccc(Sc2c(-c3cc(Cl)ccc3O)c3cc(C(F)(F)F)ccc3[nH]c2=O)cc1 [Example 16, N-[4-[[4-(5-chloro-2-hydroxyphenyl)-1,2-dihydro-2-oxo-6-(trifluoromethyl)-3-quinolinyl]thio]phenyl]-4-(2-pyridinyl)-1-piperazinebutanamide] | 37 | – | 197^⋄ % | – | – |
| O=C(CCN1CCC(N2CCCCC2)CC1)Nc1ccc(Sc2c(-c3cc(Cl)ccc3O)c3cc(C(F)(F)F)ccc3[nH]c2=O)cc1 [Example 13, N-[4-[[4-(5-chloro-2-hydroxyphenyl)-1,2-dihydro-2-oxo-6-(trifluoromethyl)-3-quinolinyl]thio]phenyl]-[1,4′-bipiperidine]-1′-propanamide] | 23 | 255 | – | 78 | – |
| O=C(CCN1CCOCC1)Nc1ccc(Sc2c(-c3cc(Cl)ccc3O)c3cc(C(F)(F)F)ccc3[nH]c2=O)cc1 [Example 3, N-{4-[4-(5-Chloro-2-hydroxy-phenyl)-2-oxo-6-trifluoromethyl-1,2-dihydro-quinolin-3-ylsulfanyl]-phenyl}-3-morpholin-4-yl-propionamide] | 22 | 453 | – | 50 | – |
| CN1CCN(CC(=O)Nc2ccc(Sc3c(-c4cc(Cl)ccc4O)c4cc(C(F)(F)F)ccc4[nH]c3=O)cc2)CC1 [Example 2, N-{4-[4-(5-Chloro-2-hydroxy-phenyl)-2-oxo-6-trifluoromethyl-1,2-dihydro-quinolin-3-ylsulfanyl]-phenyl}-2-(4-methyl-piperazin-1-yl)-acetamide] | 19 | 246 | – | 36 | – |
| O=C(CCCN1CCCC1)Nc1ccc(Sc2c(-c3cc(Cl)ccc3O)c3cc(C(F)(F)F)ccc3[nH]c2=O)cc1 [Example 5, N-{4-[4-(5-Chloro-2-hydroxy-phenyl)-2-oxo-6-trifluoromethyl-1,2-dihydro-quinolin-3-ylsulfanyl]-phenyl}-4-pyrrolidin-1-yl-butyramide] | 36 | 280 | – | 65 | – |
| O=C(CCN1CCCC1)Nc1ccc(Sc2c(-c3cc(Cl)ccc3O)c3cc(C(F)(F)F)ccc3[nH]c2=O)cc1 [Example 4, N-{4-[4-(5-Chloro-2-hydroxy-phenyl)-2-oxo-6-trifluoromethyl-1,2-dihydro-quinolin-3-ylsulfanyl]-phenyl}-3-pyrrolidin-1-yl-propionamide] | 35 | 264 | – | – | – |
| CN1CCN(CCC(=O)Nc2ccc(Sc3c(-c4cc(Cl)ccc4O)c4cc(C(F)(F)F)ccc4[nH]c3=O)cc2)CC1 [Example 11, N-[4-[[4-(5-chloro-2-hydroxyphenyl)-1,2-dihydro-2-oxo-6-(trifluoromethyl)-3-quinolinyl]thio]phenyl]-4-methyl-1-piperazinepropanamide] | 30 | 474 | – | 70 | – |
| O=C(CCCN1CCC(N2CCCCC2)CC1)Nc1ccc(Sc2c(-c3cc(Cl)ccc3O)c3cc(C(F)(F)F)ccc3[nH]c2=O)cc1 [Example 15, N-[4-[[4-(5-chloro-2-hydroxyphenyl)-1,2-dihydro-2-oxo-6-(trifluoromethyl)-3-quinolinyl]thio]phenyl]-[1,4′-bipiperidine]-1′-butanamide] | – | 268 | – | – | – |
| O=C(CN1CCN(c2ccccn2)CC1)Nc1ccc(Sc2c(-c3cc(Cl)ccc3O)c3cc(C(F)(F)F)ccc3[nH]c2=O)cc1 [Example 9, N-[4-[[4-(5-chloro-2-hydroxyphenyl)-1,2-dihydro-2-oxo-6-(trifluoromethyl)-3-quinolinyl]thio]phenyl]-4-(2-pyridinyl)-1-piperazineacetamide] | 17 | – | – | – | 116^⋄⋄ % |
| O=C(CN1CCCC1)Nc1ccc(Sc2c(-c3cc(Cl)ccc3O)c3cc(C(F)(F)F)ccc3[nH]c2=O)cc1 [Example 6, N-[4-[[4-(5-chloro-2-hydroxyphenyl)-1,2-dihydro-2-oxo-6-(trifluoromethyl)-3-quinolinyl]thio]phenyl]-1-pyrrolidineacetamide] | 28 | 291 | – | – | – |
| O=C(CN1CCOCC1)Nc1ccc(Sc2c(-c3cc(Cl)ccc3O)c3cc(C(F)(F)F)ccc3[nH]c2=O)cc1 [Example 1, N-{4-[4-(5-Chloro-2-hydroxy-phenyl)-2-oxo-6-trifluoromethyl-1,2-dihydro-quinolin-3-ylsulfanyl]-phenyl}-2-morpholin-4-yl-acetamide] | 34 | – | 296^⋄ % | 51 | – |
| CN(C)C1CCN(CC(=O)Nc2ccc(Sc3c(-c4cc(Cl)ccc4O)c4cc(C(F)(F)F)ccc4[nH]c3=O)cc2)CC1 [Example 10, N-[4-[[4-(5-chloro-2-hydroxyphenyl)-1,2-dihydro-2-oxo-6-(trifluoromethyl)-3-quinolinyl]thio]phenyl]-4-(dimethylamino)-1-piperidineacetamide] | 19 | 292 | – | 54 | – |
| CN(C)CCN(C)CCC(=O)Nc1ccc(Sc2c(-c3cc(Cl)ccc3O)c3cc(C(F)(F)F)ccc3[nH]c2=O)cc1 [Example 12, N-[4-[[4-(5-chloro-2-hydroxyphenyl)-1,2-dihydro-2-oxo-6-(trifluoromethyl)-3-quinolinyl]thio]phenyl]-3-[[2-(dimethylamino)ethyl]methylamino]propanamide] | 29 | 489 | – | – | – |
